The compounds below were run against MAPK14 (human) (UniProt Q16539) (assay: Inhibition of MAPK14 Kinase Activity).
MAPK14 (human), sequence (Q16539 whole entry, looked up): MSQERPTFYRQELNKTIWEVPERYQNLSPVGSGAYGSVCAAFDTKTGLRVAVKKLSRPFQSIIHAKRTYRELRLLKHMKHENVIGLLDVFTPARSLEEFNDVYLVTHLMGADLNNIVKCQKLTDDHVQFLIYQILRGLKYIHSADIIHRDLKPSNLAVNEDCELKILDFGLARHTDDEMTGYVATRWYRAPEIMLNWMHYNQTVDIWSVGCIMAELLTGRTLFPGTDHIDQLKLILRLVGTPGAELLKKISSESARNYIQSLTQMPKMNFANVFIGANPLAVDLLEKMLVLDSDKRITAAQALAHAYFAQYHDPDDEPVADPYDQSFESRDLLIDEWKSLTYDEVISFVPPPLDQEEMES
`CC(C)n1c(NCCCNC(=O)CO)nc(OCc2ccc(F)cc2F)c(Br)c1=O` showed an IC50 of 12.5 nM and a Ki of 5.95 nM. Work on `CC(C)n1c(N2CC[C@@H](NCCO)C2)nc(OCc2ccc(F)cc2F)c(Br)c1=O` yielded an IC50 of 615 nM and a Ki of 343 nM. Compound `CC(C)n1c(OCCNS(C)(=O)=O)nc(OCc2ccc(F)cc2F)c(Br)c1=O` has an IC50 of 18.5 nM and a Ki of 9.47 nM. With `Cc1nc(OCc2ccc(F)cc2CNC(=O)NC2CCCCC2)c(Br)c(=O)n1C(C)C` the IC50 was 786 nM and the Ki was 372 nM. `CC(C)n1c(CCCO)nc(OCc2ccc(F)cc2F)c(Cl)c1=O` gave an IC50 of 392 nM and a Ki of 202 nM. Compound `CC(C)n1c(CCCC(=O)NCCO)nc(OCc2ccc(F)cc2F)c(Br)c1=O` has an IC50 of 600 nM and a Ki of 278 nM. For `CC(C)n1c(N2CCN(C(=O)C(C)(C)N)CC2)nc(OCc2ccc(F)cc2F)c(Br)c1=O`, the IC50 was 531 nM and the Ki was 222 nM. In the case of `CC(C)n1c(NCCNC(N)=O)nc(OCc2ccc(F)cc2F)c(Br)c1=O`, the IC50 is reported as 14.2 nM and the Ki is reported as 7.04 nM. With `CC(C)n1c(NCCNC(=O)C(C)(C)O)nc(OCc2ccc(F)cc2F)c(Br)c1=O` the IC50 was 17.2 nM and the Ki was 8.14 nM. Work on `CC(C)n1c(OCCNS(C)(=O)=O)nc(OCc2ccc(F)cc2F)c(Cl)c1=O` yielded an IC50 of 26.3 nM and a Ki of 15.5 nM. Work on `CC(=O)N1CCC(Nc2nc(OCc3ccc(F)cc3F)c(Br)c(=O)n2C(C)C)CC1` yielded an IC50 of 87.9 nM and a Ki of 41.4 nM. With `CC(=O)NCCCCc1nc(OCc2ccc(F)cc2F)c(Cl)c(=O)n1C(C)C` the IC50 was 334 nM and the Ki was 159 nM. Work on `CC(=O)NCCOc1nc(OCc2ccc(F)cc2F)c(Cl)c(=O)n1C(C)C` yielded an IC50 of 80.4 nM and a Ki of 49.3 nM. Work on `CC(=O)NCCOc1nc(OCc2ccc(F)cc2F)c(Br)c(=O)n1C(C)C` yielded an IC50 of 51 nM and a Ki of 27.4 nM. Compound `CC(C)n1c(OCCCC(=O)NCCO)nc(OCc2ccc(F)cc2F)c(Cl)c1=O` has an IC50 of 330 nM and a Ki of 157 nM. `CC(C)n1c(OCCNC(N)=O)nc(OCc2ccc(F)cc2F)c(Br)c1=O` was tested, and the IC50 was 2.6 nM and the Ki was 0.713 nM. `CC(C)n1c(CCCC(N)=O)nc(OCc2ccc(F)cc2F)c(Cl)c1=O` gave an IC50 of 256 nM and a Ki of 127 nM. With `CCNC(=O)NCc1cc(F)ccc1COc1nc(C)n(C(C)C)c(=O)c1Br` the IC50 was 129 nM and the Ki was 62.1 nM. Work on `CC(C)n1c(CCCCO)nc(OCc2ccc(F)cc2F)c(Br)c1=O` yielded an IC50 of 239 nM and a Ki of 114 nM. In the case of `CC(C)n1c(-c2cccc(C(N)=O)c2)nc(OCc2ccc(F)cc2F)c(Cl)c1=O`, the IC50 is reported as 1020 nM and the Ki is reported as 557 nM. `CC(C)n1c(NCC(N)=O)nc(OCc2ccc(F)cc2F)c(Cl)c1=O` showed an IC50 of 102 nM and a Ki of 48 nM. Compound `CNC(=O)CCCc1nc(OCc2ccc(F)cc2F)c(Cl)c(=O)n1C(C)C` has an IC50 of 490 nM and a Ki of 252 nM. Work on `CCNC(=O)NCc1cc(F)ccc1COc1nc(C)n(C(C)C)c(=O)c1Cl` yielded an IC50 of 380 nM and a Ki of 174 nM. Work on `CC(C)n1c(N2CCN(C(=O)CN)CC2)nc(OCc2ccc(F)cc2F)c(Br)c1=O` yielded an IC50 of 158 nM and a Ki of 81 nM. For `CC(C)n1c(N2CCCC(C(N)=O)C2)nc(OCc2ccc(F)cc2F)c(Br)c1=O` (centres undefined), the IC50 was 119 nM and the Ki was 61.6 nM. For `CC(C)n1c(OCCNC(=O)NCCO)nc(OCc2ccc(F)cc2F)c(Cl)c1=O`, the IC50 was 398 nM and the Ki was 190 nM. `CCN[C@@H]1CCN(c2nc(OCc3ccc(F)cc3F)c(Br)c(=O)n2C(C)C)C1` showed an IC50 of 131 nM and a Ki of 71.6 nM. Compound `CC(C)n1c(N2CCNCC2)nc(OCc2ccc(F)cc2F)c(Br)c1=O` has an IC50 of 732 nM and a Ki of 379 nM. Compound `CC(C)n1c(N[C@@H](C)C(N)=O)nc(OCc2ccc(F)cc2F)c(Br)c1=O` has an IC50 of 4.6 nM and a Ki of 1.73 nM. Compound `CC(C)n1c(CCCC(=O)NCCO)nc(OCc2ccc(F)cc2F)c(Cl)c1=O` has an IC50 of 612 nM and a Ki of 315 nM. `CC(C)n1c(NCCCC(N)=O)nc(OCc2ccc(F)cc2F)c(Br)c1=O` showed an IC50 of 17.3 nM and a Ki of 8.82 nM. `CC(C)n1cnc(OCc2ccc(F)cc2F)c(Cl)c1=O` gave an IC50 of 296 nM and a Ki of 148 nM. Compound `CC(C)n1c(N2CC[C@@H](N)C2)nc(OCc2ccc(F)cc2F)c(Br)c1=O` has an IC50 of 69.6 nM and a Ki of 36.3 nM. `CC(C)n1c(-c2ccccc2)nc(OCc2ccc(F)cc2F)c(Cl)c1=O` was tested, and the IC50 was 260 nM and the Ki was 144 nM. Work on `CC(C)n1c(NCCCNS(C)(=O)=O)nc(OCc2ccc(F)cc2F)c(Br)c1=O` yielded an IC50 of 7.2 nM and a Ki of 3.32 nM. `CC(C)n1c(O)nc(OCc2ccc(F)cc2F)c(Cl)c1=O` gave an IC50 of 267 nM and a Ki of 139 nM. Work on `CC(C)n1c(OCCNC(N)=O)nc(OCc2ccc(F)cc2F)c(Cl)c1=O` yielded an IC50 of 21.2 nM and a Ki of 12.4 nM. With `CC(C)n1c(OCCCC(=O)O)nc(OCc2ccc(F)cc2F)c(Cl)c1=O` the IC50 was 229 nM and the Ki was 109 nM. `CC(C)n1c(NCCCNC(=O)C(C)(C)O)nc(OCc2ccc(F)cc2F)c(Br)c1=O` gave an IC50 of 23.8 nM and a Ki of 12.7 nM. In the case of `CC(C)n1c(OCCCCO)nc(OCc2ccc(F)cc2F)c(Cl)c1=O`, the IC50 is reported as 139 nM and the Ki is reported as 68.5 nM. Work on `CC(C)n1c(OCC(N)=O)nc(OCc2ccc(F)cc2F)c(Br)c1=O` yielded an IC50 of 270 nM and a Ki of 132 nM. `CNC(=O)CNc1nc(OCc2ccc(F)cc2F)c(Br)c(=O)n1C(C)C` gave an IC50 of 80 nM and a Ki of 41.9 nM.

Source: the Kinase Knowledgebase extract (Sharma et al. 2016)
